Laboratory results published in patent US9145415B2, “Nitrogen-containing heterocyclic compound or salt thereof” (FUJIFILM Corporation, priority 2012, dated 2015).
Where two headings read alike, the source gives them in different places.

Experiments:
[1] = biological target: T1, human FLT3 protein (FLT3 (WT)) (Homo sapiens, UniProt P36888); assay: FLT3 inhibition test (FLT3 enzyme inhibition, time-resolved fluorescence of substrate peptide phosphorylation); format: biochemical; conditions: read-out: FLT3 (WT) enzyme inhibition activity
T1 construct: human FLT3 protein (intracellular region, 564 to 993 aa); GST; purchased Carna Biosciences; host or cells: baculovirus expression system
T1 sequence (P36888 564-993): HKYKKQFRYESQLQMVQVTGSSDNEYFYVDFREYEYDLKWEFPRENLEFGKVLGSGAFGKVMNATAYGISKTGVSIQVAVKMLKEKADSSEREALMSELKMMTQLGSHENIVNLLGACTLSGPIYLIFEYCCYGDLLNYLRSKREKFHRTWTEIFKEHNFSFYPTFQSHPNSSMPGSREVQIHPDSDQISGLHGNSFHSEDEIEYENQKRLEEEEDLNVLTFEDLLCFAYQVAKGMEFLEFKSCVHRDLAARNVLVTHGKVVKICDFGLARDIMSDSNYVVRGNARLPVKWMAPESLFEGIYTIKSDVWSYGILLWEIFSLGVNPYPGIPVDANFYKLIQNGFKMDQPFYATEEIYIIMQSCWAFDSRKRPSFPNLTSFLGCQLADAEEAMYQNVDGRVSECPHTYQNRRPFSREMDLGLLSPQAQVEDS
In short: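 Substrate peptide phosphorylation detected by time-resolved fluorescence after a 30 min kinase reaction at 25° C with 50 μM ATP (final). Beforehand, compound and FLT3 (WT, 1.2 μg) stood 15 min at 25° C in HEPES buffer pH 7.5 containing MgCl2, NaCl, BSA and DTT.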

[2] = test system: Molm-13 cells; assay: Leukemia cell proliferation inhibition test (ATPlite), Molm-13; format: cell-based; conditions: Homo sapiens, read-out: MOLM13 cell proliferation inhibition effect
In short: (§1)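 Molm-13 or MV4-11 cells in RPMI with 10% FBS and pen/strep, seeded at 10,000 cells per well, were exposed to serially diluted compound for 72 hours at 37° C, 5% CO2. Total cellular ATP was read by luciferase luminescence. GI50 came from sigmoid fits against the 0.1% DMSO control, in duplicate.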

[3] = test system: MV4-11 cells; assay: Leukemia cell proliferation inhibition test (ATPlite), MV4-11; format: cell-based; conditions: Homo sapiens, read-out: MV4-11 cell proliferation inhibition effect
In short: as §1

[4] = GST-fused human FLT3 (564 to 993 aa), ATP 50 μM
[5] = MOLM-13, 72 h, Molm-13, 72 hours culture, ATPlite, GI50 per method
[6] = MV4-11, 72 h, MV4-11, 72 hours culture, ATPlite, GI50 per method

Row | SMILES | IC50 [1, 4] [nM] | IC50 [2, 5] [nM] | IC50 [3, 6] [nM] | IC50 ([1]; FLT3 (WT)) [nM] | IC50 ([2]; MOLM-13, MOLM13 cell) [nM] | IC50 ([3]; MV4-11, MV4-11 cell) [nM]
1 | CCCN(C)c1nc(Nc2ccc(C(N)=O)cc2)ncc1C#CCCCNC(=O)[C@H](C)N(C)C(=O)/C=C/CN(C)C [Compound 9-6] | < 10 | < 10 | < 10 |  |  | 
2 | CCCNc1nc(Nc2cccc(F)c2)ncc1C#CCCCNC(=O)CN(C)C(=O)/C=C/CN(C)C [Compound 7-24, (E)-4-(Dimethylamino)-N-(2-((5-(2-((3-fluorophenyl)amino)-4-(propylamino)pyrimidin-5-yl)-4-pentyn-1-yl)amino)-2-oxoethyl)-N-methyl-2-butenamide] | < 10 | < 10 | < 10 |  |  | 
3 | CCCNc1cc(Nc2ccc(C#N)cc2)ncc1C#CCCCNC(=O)[C@H](C)N(C)C(=O)/C=C/CN(C)C [Compound 18-1, (S,E)-N-(1-((5-(6-((4-cyanophenyl)amino)-4-(propylamino)pyridin-3-yl)-4-pentyn-1-yl)amino)-1-oxopropan-2-yl)-4-(dimethylamino)-N-methyl-2-butenamide] | < 10 | 10 to 100 | 10 to 100 |  |  | 
4 | CNc1nc(Nc2ccc(F)cc2)ncc1C#CCCCNC(=O)[C@@H]1CCCN1C(=O)/C=C/CN(C)C [Compound 21-43] |  |  |  | < 10 | < 10 | < 10
5 | CCCNc1nc(NCCc2ccncc2)ncc1C(=O)Nc1cccc(NC(=O)CNC(=O)/C=C/CN2CCN(CCO)CC2)c1 [Compound 2-16] | < 10 | 100 to 1000 | 10 to 100 |  |  | 
6 | C[C@@H](C(=O)Nc1cccc(C#Cc2cnc(NCCc3ccncc3)nc2N2CCOCC2)c1)N(C)C(=O)/C=C/CN(C)C [Compound 12-13, (S,E)-4-(dimethylamino)-N-methyl-N-(1-((3-((4-morpholino-2-((2-(pyridin-4-yl)ethyl)amino)pyrimidin-5-yl)ethynyl)phenyl)amino)-1-oxopropan-2-yl)-2-butenamide] | < 10 | < 10 | < 10 |  |  | 
7 | C[C@@H](C(=O)NCCC(C)(C)C#Cc1cnc(Nc2ccnc(F)c2)nc1NC1CC1)N(C)C(=O)/C=C/CN(C)C [Compound 9-20] | < 10 | < 10 | < 10 |  |  | 
8 | CCCNc1nc(Nc2ccc(C(N)=O)cc2)ncc1C(=O)NCCCNC(=O)CN(C)C(=O)/C=C/CN(C)C [Compound 5-5] | < 10 | 10 to 100 | 10 to 100 |  |  | 
9 | CCCNc1nc(Nc2ccc(OC)nc2)ncc1C#CCCCNC(=O)[C@H](C)N(C)C(=O)/C=C/CN(C)C [Compound 7-23] | < 10 | 10 to 100 | < 10 |  |  | 
10 | CCCNc1nc(Nc2ccc(F)cc2)ncc1C#C[C@@H]1CCC[C@H](NC(=O)[C@H](C)N(C)C(=O)/C=C/CN(C)C)C1 [Compound 21-40] |  |  |  | < 10 | < 10 | < 10
11 | CCCNc1nc(Nc2ccc(C#N)cc2)ncc1C#CCCCNC(=O)CN(Cc1ccccc1)C(=O)/C=C/CN(C)C [Compound 7-43] | < 10 | < 10 | < 10 |  |  | 
12 | C=CC(=O)NCCC(=O)NCCNC(=O)c1cnc(NCCc2ccncc2)nc1NCCC [Compound 2-19] | 10 to 100 | > 1000 | > 1000 |  |  | 
13 | COCCCNc1nc(Nc2ccnc(OC)c2)ncc1C#CCCCNC(=O)[C@@H]1C[C@H](F)CN1C(=O)/C=C/CN(C)C [Compound 9-34, (2S,4S)-1-((E)-4-(Dimethylamino)-2-butenoyl)-4-fluoro-N-(5-(4-((3-methoxypropyl)amino)-2-((methoxypyridin-4-yl)amino)pyrimidin-5-yl)-4-pentyn-1-yl)pyrrolidine-2-carboxamide] | < 10 | < 10 | < 10 |  |  | 
14 | CCCNc1nc(Nc2ccc(C#N)cc2)ncc1C#CCCCNC(=O)[C@@H]1C[C@H](OC)CN1C(=O)/C=C/CN(C)C [Compound 7-61] | < 10 | < 10 | < 10 |  |  | 
15 | CCCNc1nc(Nc2ccc(C#N)c(F)c2)ncc1C#CCCCNC(=O)[C@H](C)N(C)C(=O)/C=C/CN(C)C [Compound 9-25] | < 10 | < 10 | < 10 |  |  | 
16 | CNc1nc(Nc2cccc(C#N)c2)ncc1C#CCCCNC(=O)[C@@H]1C[C@H](F)CN1C(=O)/C=C/CN(C)C [Compound 7-75] | < 10 | < 10 | < 10 |  |  | 
17 | CCCNc1nc(Nc2ccc(C(N)=O)cc2)ncc1C(=O)Nc1cccc(NC(=O)C(C)(C)NC(=O)/C=C/CN(C)C)c1 [Compound 3-13] | < 10 | 10 to 100 | 10 to 100 |  |  | 

Row | SMILES | IC50 [1, 4] [nM] | IC50 [2, 5] [nM] | IC50 [3, 6] [nM] | IC50 ([1]; FLT3 (WT)) [nM] | IC50 ([2]; MOLM-13, MOLM13 cell) [nM] | IC50 ([3]; MV4-11, MV4-11 cell) [nM]
18 | CCCNc1nc(Nc2ccc(C(N)=O)cc2)ncc1C(=O)Nc1cccc(NC(=O)[C@H](C)NC(=O)/C=C/CN(C)C)c1 [Compound 3-12] | < 10 | 10 to 100 | 10 to 100 |  |  | 
19 | CN(C)C/C=C/C(=O)N(C)CC(=O)NCCCC#Cc1cnc(Nc2ccc(F)cc2)nc1NCCCF [Compound 10-21] | < 10 | < 10 | < 10 |  |  | 
20 | CCCNc1nc(Nc2ccc3c(F)nn(C)c3c2)ncc1C#CCCCNC(=O)[C@@H]1CCCN1C(=O)/C=C/CN(C)C [Compound 22-59] |  |  |  | < 10 | < 10 | < 10
21 | CCCNc1nc(Nc2ccc(C#N)cc2)ncc1C#CCCCNC(=O)CN(CC)C(=O)/C=C/CN(C)C [Compound 7-39] | < 10 | < 10 | < 10 |  |  | 
22 | CCCNc1nc(Nc2ccc(C#N)cc2)ncc1C#CCCCNC(=O)CNC(=O)/C=C/CN(C)C [Compound 7-57] | < 10 | < 10 | < 10 |  |  | 
23 | CCCNc1nc(Nc2ccc3cn[nH]c3c2)ncc1C#CCCCNC(=O)[C@@H]1CCCN1C(=O)/C=C/CN(C)C [Compound 22-63] |  |  |  | < 10 | < 10 | < 10
24 | C=CC(=O)NCC(=O)N1CCC(NC(=O)c2cnc(NCCc3ccncc3)nc2NCCC)CC1 [Compound 6-19] | 10 to 100 | 10 to 100 | 10 to 100 |  |  | 
25 | C=CC(=O)N[C@H](C)C(=O)Nc1cccc(NC(=O)c2cnc(NCCc3ccncc3)nc2NCCC)c1 [Compound 2-3] | < 10 | 10 to 100 | 10 to 100 |  |  | 
26 | C[C@@H](C(=O)N[C@H]1C[C@@H](C#Cc2cnc(Nc3cccc(F)c3)nc2NCCCF)C1)N(C)C(=O)/C=C/CN(C)C [Compound 15-13, (E)-4-(Dimethylamino)-N—((S)-1-(((1S,3R)-3-((2-((3-fluorophenyl)amino)-4-((3-fluoropropyl)amino)pyrimidin-5-yl)ethynyl)cyclobutyl)amino)-1-oxopropan-2-yl)-N-methyl-2-butenamide] | < 10 | < 10 | < 10 |  |  | 
27 | CCCNc1nc(Nc2ccc3c(c2)c(OC)nn3C)ncc1C#CCCCNC(=O)[C@H](C)N(C)C(=O)/C=C/CN(C)C [Compound 22-25] |  |  |  | < 10 | < 10 | < 10
28 | COc1ccc(Nc2nc(Nc3cccc(F)c3)ncc2C#CCCCNC(=O)[C@H](C)N(C)C(=O)/C=C/CN(C)C)cc1 [Compound 10-3, (S,E)-4-(Dimethylamino)-N-(1-((5-(2-((3-fluorophenyl)amino)-4-((4-methoxyphenyl)amino)pyrimidin-5-yl)-4-pentyn-1-yl)amino)-1-oxopropan-2-yl)-N-methyl-2-butenamide] | < 10 | < 10 | < 10 |  |  | 
29 | CCCNc1nc(Nc2ccc3c(OC)nn(C)c3c2)ncc1C#CCCCNC(=O)[C@H](C)N(C)C(=O)/C=C/CN(C)C [Compound 22-26] |  |  |  | < 10 | 10 to 100 | 10 to 100
30 | CCCNc1nc(NCCc2ccncc2)ncc1C(=O)Nc1cccc(NC(=O)[C@H](C)NC(=O)/C=C/CN(C)C)c1 [Compound 1-2, (S,E)-N-(3-(2-(4-(dimethylamino)-2-butenamido)propanamido)phenyl)-4-(propylamino)-2-((2-(pyridin-4-yl)ethyl)amino)pyrimidine-5-carboxamide] | < 10 | 10 to 100 | < 10 |  |  | 
31 | CCCNc1nc(Nc2ccc(Cn3cncn3)cc2)ncc1C#CCCCNC(=O)CN(C)C(=O)/C=C/CN(C)C [Compound 12-11] | 10 to 100 | 10 to 100 | 10 to 100 |  |  | 
32 | CCCNc1nc(Nc2ccc3scnc3c2)ncc1C#CCCCNC(=O)[C@H](C)N(C)C(=O)/C=C/CN(C)C [Compound 21-15] | < 10 | 10 to 100 | < 10 |  |  | 
33 | CC(C)Nc1nc(Nc2cccc(F)c2)ncc1C#C[C@@H]1CCC[C@H](NC(=O)[C@H](C)N(C)C(=O)/C=C/CN(C)C)C1 [Compound 21-30] |  |  |  | < 10 | < 10 | < 10
